Measured values taken from patent publication US20100234238A1, “METHOD FOR PROFILING KINASE INHIBITORS” (Janssen Pharmaceutica N V, priority 2006, published 2010).

Experiments:
xenograft tumors [1] = assay: Response of subcutaneous xenograft tumors to MTKI in vivo; set-up: species or system nude immuno-compromised mice; conditions: for response status: response to MTKI in vivo
Description: (§1) To explore whether a similar approach allows for the classification of responder and non-responder tumors, the same strategy as above was applied to 12 different xenograft tumors, which were subcutaneously grown in nude immuno-compromised mice from human cancer cell lines. […] Lysates were made from homogenized frozen tumor blocks and analyzed in the absence or presence of 5 μM MTKI, as before.

[2] = system: tyrosine kinase activity in cell line lysates; assay: Peptide array profiling of 9 cell line lysates in the presence of MTKI or Tarceva; type: biochemical; conditions: 5 μM
Description: To test whether other EGFR inhibitors, related to MTKI, such as Tarceva (erlotinib; OSI pharmaceuticals), are also amenable to this response prediction methodology, 9 cell lines were profiled in the presence of MTKI, or Tarceva (5 μM in both cases). […] The value of the previously derived MTKI prediction peptides is illustrated in Tables 6A to C. Based on these peptides also response to Tarceva can be predicted with identical accuracy as for MTKI (and with the same false predictions, in casu H2009 and MOLT4).

xenograft tumors [3] = assay: Response of subcutaneous xenograft tumors to MTKI in vivo; set-up: species or system nude immuno-compromised mice; key: R: A responder is predicted when minimally 4 peptides have a ratio <0.8; NR = Non-Responder to MTKI
Description: as §1

xenograft tumors [4] = assay: as above; set-up: species or system nude immuno-compromised mice; key: R = Responder to MTKI; NR = Non-Responder to MTKI
Description: as §1

[5] = system: 27 cell lines, representing diverse cancer cell types; assay: Inhibition of proliferation of cell lines in vitro (response status); type: cell-based; conditions: response to MTKI
Description: It was tested whether the Pamchip peptide arrays are a useful tool to predict the response of a cell line to the multi-targeted kinase inhibitor, MTKI. MTKI inhibits the proliferation of a range of cell lines in vitro with widely varying IC50's. The lysates prepared from these 27 cell lines, representing diverse cancer cell types, were profiled on the peptide arrays in the absence or presence of 5 μM MTKI, in 6 replicates for each condition. In this panel, 13 cell lines were defined as responder cell lines (IC50<3 μM; cell lines are ordered according to increasing IC50 in Example 1, whereas 14 cell lines are classified as ‘non-responder’ cell lines (IC50>10 μM). Intermediary cell lines and cell lines with highly variable IC50 measurements were omitted from the analysis. The experiment included the highly responsive H3255 lung cancer cell line, which overexpresses mutant EGFR L858R. This mutant variant is highly responsive to MTKI, which is an ATP-competitive compound that binds to the active conformation of EGFR (similar to erlotinib and gefitinib). Accordingly, the most profound changes induced by MTKI in lysate kinase activity can be observed for this highly responsive cell line. To identify those peptides for which the inhibition of phosphorylation by MTKI correlates well with the response status of the cell line from which the lysate was prepared, a statistical mixed-model was set up to identify those peptides that are most likely to change after MTKI treatment in responder cell lysates compared to non-responder lysates, taken into account the inter-replicate variability (see the material and methods section for a more detailed description of the statistical test). […] To illustrate that the inhibition of the phosphorylation of these peptides in a given lysate does indeed correlate with the response of the corresponding cell line to MTKI, the following cut-off was chosen to classify responders and non-responders: minimally 4 peptides out of the 16 peptide list should be inhibited with a ratio of less than 0.8 (more than 20% inhibition) to classify as a responder. Applying this rule to all 27 cell lines indicates an overall classification accuracy of 82% (with 78% sensitivity, and 86% specificity). […] Note that the use of these […] peptides as a classification tool can be optimized according to the required sensitivity and specificity.

EGFR L858R = EGFR L858R (Homo sapiens, UniProt P00533, L858R); assay: IC50 on mutant EGFR; type: biochemical
EGFR L858R, sequence (P00533 25-1210 L858R): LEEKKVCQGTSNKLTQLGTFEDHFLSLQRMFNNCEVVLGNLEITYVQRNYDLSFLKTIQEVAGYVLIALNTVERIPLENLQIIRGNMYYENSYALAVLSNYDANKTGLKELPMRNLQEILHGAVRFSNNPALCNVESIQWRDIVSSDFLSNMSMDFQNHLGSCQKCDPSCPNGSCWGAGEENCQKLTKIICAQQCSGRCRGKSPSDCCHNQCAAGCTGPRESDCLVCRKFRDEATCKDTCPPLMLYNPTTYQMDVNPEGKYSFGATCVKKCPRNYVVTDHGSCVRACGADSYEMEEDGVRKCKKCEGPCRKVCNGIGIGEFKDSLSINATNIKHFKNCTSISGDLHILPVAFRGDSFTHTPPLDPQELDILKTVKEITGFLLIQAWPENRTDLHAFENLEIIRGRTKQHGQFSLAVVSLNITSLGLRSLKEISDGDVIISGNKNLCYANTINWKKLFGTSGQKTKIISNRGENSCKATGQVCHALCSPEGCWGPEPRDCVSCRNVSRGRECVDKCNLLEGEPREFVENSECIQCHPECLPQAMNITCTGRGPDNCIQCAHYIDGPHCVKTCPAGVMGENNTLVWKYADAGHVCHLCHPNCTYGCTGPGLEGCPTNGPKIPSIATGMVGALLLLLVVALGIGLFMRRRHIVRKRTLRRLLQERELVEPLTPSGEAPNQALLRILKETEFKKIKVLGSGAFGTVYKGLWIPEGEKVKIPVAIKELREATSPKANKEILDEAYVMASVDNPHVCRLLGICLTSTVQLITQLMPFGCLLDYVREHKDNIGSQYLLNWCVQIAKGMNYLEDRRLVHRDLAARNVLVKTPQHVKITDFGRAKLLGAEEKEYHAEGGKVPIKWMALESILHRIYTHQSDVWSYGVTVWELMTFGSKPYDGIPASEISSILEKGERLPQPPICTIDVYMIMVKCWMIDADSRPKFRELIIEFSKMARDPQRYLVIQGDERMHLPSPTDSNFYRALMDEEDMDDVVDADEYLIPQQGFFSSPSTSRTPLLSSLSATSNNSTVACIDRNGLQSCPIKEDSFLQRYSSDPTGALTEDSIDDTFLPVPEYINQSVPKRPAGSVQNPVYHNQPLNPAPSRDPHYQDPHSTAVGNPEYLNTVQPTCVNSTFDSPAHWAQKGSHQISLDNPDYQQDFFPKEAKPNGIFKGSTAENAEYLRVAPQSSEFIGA

[6] = system: 27 cell lines, representing diverse cancer cell types; assay: Inhibition of proliferation of cell lines in vitro (response status); type: cell-based; set-up: key: R: A responder is predicted when minimally 4 peptides have a ratio <0.8; NR = Non-Responder to MTKI; conditions: MTKI
Description: It was tested whether the Pamchip peptide arrays are a useful tool to predict the response of a cell line to the multi-targeted kinase inhibitor, MTKI. MTKI inhibits the proliferation of a range of cell lines in vitro with widely varying IC50's. The lysates prepared from these 27 cell lines, representing diverse cancer cell types, were profiled on the peptide arrays in the absence or presence of 5 μM MTKI, in 6 replicates for each condition. In this panel, 13 cell lines were defined as responder cell lines (IC50<3 μM; cell lines are ordered according to increasing IC50 in Example 1, whereas 14 cell lines are classified as ‘non-responder’ cell lines (IC50>10 μM). Intermediary cell lines and cell lines with highly variable IC50 measurements were omitted from the analysis. The experiment included the highly responsive H3255 lung cancer cell line, which overexpresses mutant EGFR L858R. This mutant variant is highly responsive to MTKI, which is an ATP-competitive compound that binds to the active conformation of EGFR (similar to erlotinib and gefitinib). Accordingly, the most profound changes induced by MTKI in lysate kinase activity can be observed for this highly responsive cell line. […]

Her2 = Her2 (Homo sapiens, UniProt P04626); assay: Her2 inhibition; type: biochemical
Her2, sequence (P04626 23-1255): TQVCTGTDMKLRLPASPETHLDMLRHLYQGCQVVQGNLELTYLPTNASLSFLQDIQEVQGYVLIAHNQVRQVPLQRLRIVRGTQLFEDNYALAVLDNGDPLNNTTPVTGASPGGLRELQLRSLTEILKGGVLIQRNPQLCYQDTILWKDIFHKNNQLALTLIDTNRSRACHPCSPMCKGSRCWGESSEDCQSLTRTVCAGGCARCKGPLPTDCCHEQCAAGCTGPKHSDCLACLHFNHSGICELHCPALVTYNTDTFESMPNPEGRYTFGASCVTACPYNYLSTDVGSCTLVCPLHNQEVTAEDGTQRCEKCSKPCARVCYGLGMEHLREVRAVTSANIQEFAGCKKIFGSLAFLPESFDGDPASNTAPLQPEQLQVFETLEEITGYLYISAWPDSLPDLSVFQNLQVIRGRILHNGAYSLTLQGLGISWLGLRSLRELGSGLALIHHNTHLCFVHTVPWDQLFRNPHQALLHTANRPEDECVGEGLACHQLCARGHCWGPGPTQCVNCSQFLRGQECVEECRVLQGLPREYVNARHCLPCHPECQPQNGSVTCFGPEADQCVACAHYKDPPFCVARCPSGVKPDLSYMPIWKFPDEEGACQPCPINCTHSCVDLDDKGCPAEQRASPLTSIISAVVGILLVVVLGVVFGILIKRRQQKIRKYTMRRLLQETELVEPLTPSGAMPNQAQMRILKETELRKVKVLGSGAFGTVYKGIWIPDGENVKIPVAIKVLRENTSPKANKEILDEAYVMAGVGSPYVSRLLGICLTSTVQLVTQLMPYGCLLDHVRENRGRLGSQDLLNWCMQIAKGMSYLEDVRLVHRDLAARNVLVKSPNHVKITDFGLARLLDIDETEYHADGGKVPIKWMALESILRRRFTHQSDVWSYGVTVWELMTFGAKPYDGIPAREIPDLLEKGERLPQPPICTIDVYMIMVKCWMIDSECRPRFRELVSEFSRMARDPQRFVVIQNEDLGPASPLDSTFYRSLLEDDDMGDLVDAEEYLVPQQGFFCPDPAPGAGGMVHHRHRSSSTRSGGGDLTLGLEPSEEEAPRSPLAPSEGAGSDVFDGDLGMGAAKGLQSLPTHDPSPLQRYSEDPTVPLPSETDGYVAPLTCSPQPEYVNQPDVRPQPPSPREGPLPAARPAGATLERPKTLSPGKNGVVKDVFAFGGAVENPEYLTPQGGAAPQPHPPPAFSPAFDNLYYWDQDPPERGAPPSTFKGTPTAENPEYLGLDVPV

IC50 ([5]; BT474OD cell line): < 3 µM
IC50 ([5]; COLO 699, Colo699 cell line): < 3 µM
IC50 ([5]; HEK239, HEK239 cell line): > 10 µM
IC50 ([5]; HT1373 cell line): > 10 µM
IC50 ([5]; Homo sapiens, A-431, A431 cell line): < 3 µM
IC50 ([5]; Homo sapiens, DU-145, DU145 cell line): < 3 µM
IC50 ([5]; Homo sapiens, GTL 16, GTL16 cell line): > 10 µM
IC50 ([5]; Homo sapiens, MCF7, MCF7 cell line): > 10 µM
IC50 ([5]; Homo sapiens, MDA-MB-435S, MDAMB435s cell line): > 10 µM
IC50 ([5]; Homo sapiens, MKN-45, MKN45 cell line): > 10 µM
IC50 ([5]; Homo sapiens, MOLT-4, MOLT4 cell line): > 10 µM
IC50 ([5]; Homo sapiens, NCI-H23, H23 cell line): > 10 µM
IC50 ([5]; Homo sapiens, NCI-H1650, H1650 cell line): > 10 µM
IC50 ([5]; Homo sapiens, NCI-H2009, H2009 cell line): < 3 µM
IC50 ([5]; Homo sapiens, NCI-H2122, H2122 cell line): < 3 µM
IC50 ([5]; Homo sapiens, NCI-H3255, H3255 cell line): < 3 µM
IC50 ([5]; Homo sapiens, NCI-N87, NCI-N87 cell line): < 3 µM
IC50 ([5]; Homo sapiens, SH-SY5Y, SHSY5Y cell line): > 10 µM
IC50 ([5]; Homo sapiens, SK-BR-3, SKBR3 cell line): < 3 µM
IC50 ([5]; Homo sapiens, SNU-5, SNU5 cell line): > 10 µM
IC50 ([5]; Homo sapiens, U-118-MG, U118MG cell line): > 10 µM
IC50 ([5]; MDA231PAR cell line): > 10 µM
IC50 ([5]; NCI-H322, H322 cell line): < 3 µM
IC50 ([5]; RSJSA1 cell line): > 10 µM
IC50 ([5]; SNU-484, SNU484 cell line): < 3 µM
IC50 ([5]; SUM149, SUM149 cell line): < 3 µM
IC50 ([5]; SUM159, SUM159 cell line): < 3 µM
IC50 on EGFR 1858R compared to Tarceva (EGFR L858R): lower IC50
inhibition of Her2 compared to Tarceva (Her2): better inhibitor than Tarceva
Compound: COc1cc2ncnc3c2cc1OCCCCCN(C)Cc1ccc(Br)cc1N3 [MTKI, 4,6-ethanediylidenepyrimido[4,5-b][6,1,12]benzoxadiazacyclopentadecine, 17-bromo-8,9,10,11,12,13,14,19-octahydro-20-methoxy-13-methyl-]
response status (xenograft tumors [1]; A431 xenograft tumor): R
response status (xenograft tumors [1]; BT474 xenograft tumor): R
responsiveness of xenograft tumors in vivo (xenograft tumors [1]; DU145, SUM149 and BT474 tumors): potent inhibition of tumor growth
response status (xenograft tumors [1]; DU145 xenograft tumor): R
response status (xenograft tumors [1]; H322 xenograft tumor): R
responsiveness of xenograft tumors in vivo (xenograft tumors [1]; H460 and H441, HT29, PC3, SKOV3, H1703 tumors): non-responsive
responsiveness of xenograft tumors in vivo (xenograft tumors [1]; H3255, A431 and H322 tumors): abrupt tumor regression
response status (xenograft tumors [1]; H3255 xenograft tumor): R
response status (xenograft tumors [1]; SUM149 xenograft tumor): R
potency in lysate inhibition profile compared to Tarceva ([2]; H3255 lysate): slightly more potent
potency in lysate inhibition profile compared to Tarceva ([2]; N87 lysate): more potent
response status (xenograft tumors [3]; H441 xenograft tumor): NR
response status (xenograft tumors [3]; H460 xenograft tumor): NR
response status (xenograft tumors [3]; H1703 xenograft tumor): NR
response status (xenograft tumors [3]; HT29 xenograft tumor): NR
response status (xenograft tumors [3]; PC3 xenograft tumor): NR
response status (xenograft tumors [3]; SKOV3 xenograft tumor): NR
response status (xenograft tumors [3]; U87MG xenograft tumor): NR
response status (xenograft tumors [4]; A431 xenograft tumor): R
response status (xenograft tumors [4]; BT474 xenograft tumor): R
response status (xenograft tumors [4]; DU145 xenograft tumor): R
response status (xenograft tumors [4]; H322 xenograft tumor): R
response status (xenograft tumors [4]; H3255 xenograft tumor): R
response status (xenograft tumors [4]; SUM149 xenograft tumor): R
response status ([6]; GTL16 cell line): NR
response status ([6]; MOLT4 cell line): NR
